Data from ChEMBL document CHEMBL1134146, “Development of specific CXCR4 inhibitors possessing high selectivity indexes as well as complete stability in serum based on an anti-HIV peptide T140” (Bioorg Med Chem Lett, 2001).

Experiments:
MT4 [1] = experiment: Cytotoxic concentration of compound required to reduce the viability of mock infected MT-4 cells on the MTT assay by testI; assay type: functional; conditions: Homo sapiens
PBMC (Homo sapiens) = experiment: Cytotoxic concentration of compound determined by the […] exclusion staining method in PBMC by test II
[2] = Selectivity index determined for CC50 (test I) / EC50 x 10e3; assay type: functional
[3] = Selectivity index determined for CC50 (test II) / EC50 x 10e3; assay type: functional
MT4 [4] = experiment: Cytotoxic concentration of compound required to reduce the viability of mock infected MT-4 cells on the MTT assay in test I; assay type: functional; conditions: Homo sapiens
[5] = Selectivity index determined for CC50 (test I) to EC50 x 10e3; assay type: functional
[6] = system: Human immunodeficiency virus 1; experiment: Effective concentration for 50% protection of HIV-induced cytopathogenicity in MT-4 cells on the MTT assay (ZIDOVUDINE control); assay type: functional, organism-based; conditions: Human immunodeficiency virus 1, MT4

Question: What does the source list for NCCCC[C@@H]1NC(=O)[C@H](CCCN=C(N)N)NC(=O)[C@H](Cc2ccc(O)cc2)NC(=O)[C@@H](NC(=O)[C@@H](NC(=O)[C@H](CCCN=C(N)N)NC(=O)[C@@H](N)CCCN=C(N)N)c2ccc3ccccc3c2)CSSC[C@@H](C(=O)N[C@@H](CCCN=C(N)N)C(=O)O)NC(=O)[C@H](CCCNC(N)=O)NC(=O)[C@H](CCCN=C(N)N)NC(=O)[C@H](Cc2ccc(O)cc2)NC(=O)[C@@H]2CCCN2C(=O)[C@@H](CCCCN)NC1=O?
Answer: CC50 (MT4 [1]): > 1 µM; CC50 (PBMC (Homo sapiens)): 59 µM

Question: With NCCCC[C@@H]1NC(=O)[C@@H](CCCCN)NC(=O)[C@H](CCCN=C(N)N)NC(=O)[C@@H](Cc2ccc(O)cc2)NC(=O)[C@H](NC(=O)[C@@H](NC(=O)[C@H](CCCN=C(N)N)NC(=O)[C@@H](N)CCCN=C(N)N)c2ccc3ccccc3c2)CSSC[C@H](C(=O)N[C@@H](CCCN=C(N)N)C(=O)O)NC(=O)[C@H](CCCNC(N)=O)NC(=O)[C@H](CCCN=C(N)N)NC(=O)[C@H](Cc2ccc(O)cc2)NC(=O)[C@H]2CCCN2C1=O as the compound, how does the SI [2] read?
Answer: > 0.3

Question: What about the SI [3] of the same compound?
Answer: 18

Question: With Cc1cn([C@H]2C[C@H](N=[N+]=[N-])[C@@H](CO)O2)c(=O)[nH]c1=O [ZIDOVUDINE] as the compound, how does the CC50 (MT4 [4]) read?
Answer: 12 µM

Question: And the SI [5]?
Answer: 1.5

Question: What about the EC50 [6] of the same compound?
Answer: 0.0079 µM
